#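 96-well plates; 48 h exposure; 5 concentrations. Endpoints by linear interpolation between flanking doses. Not reached: highest tested concentration assigned. At the TGI there is no net growth.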
# Assays:
# Experiment in all cases: NCI tumour cell line growth inhibition, 48 h
# [1] = system: UACC-62 melanoma
# [2] = system: ACHN renal
# [3] = system: OVCAR-5 ovarian
# [4] = system: RXF 393 renal
# [5] = system: MALME-3M melanoma
# [6] = system: HCT-15 colon
# [7] = system: IGROV1 ovarian
# [8] = system: OVCAR-3 ovarian
# [9] = system: RXF-631 renal
# [10] = system: MOLT-4 leukemia
# [11] = system: NCI-H460 lung
# [12] = system: SF-268 CNS
# [13] = system: TK-10 renal
# [14] = system: KM12 colon
# [15] = system: SK-MEL-28 melanoma
# [16] = system: SNB-75 CNS
# [17] = system: SNB-19 CNS
# [18] = system: HOP-18 NSCLC
# [19] = system: EKVX NSCLC
# [20] = system: SK-OV-3 ovarian
# [21] = system: HOP-62 NSCLC
# [22] = system: SR leukemia
# [23] = system: BT-549 breast
# [24] = system: NCI-H23 lung
# [25] = system: U251 CNS
# [26] = system: DMS 114 small cell lung
# [27] = system: HS 578T breast
# [28] = system: SF-539 CNS
# [29] = system: COLO 205 colon
# [30] = system: UACC-257 melanoma
# [31] = system: SK-MEL-5 melanoma
# [32] = system: SN12C renal
# [33] = system: NCI-H226 lung
# [34] = system: XF 498 CNS
# [35] = system: HL-60(TB) leukemia
# [36] = system: HCC-2998 colon
# [37] = system: CAKI-1 renal
# [38] = system: NCI-H522 lung
# [39] = system: M19-MEL melanoma
# [40] = system: 786-0 renal
# [41] = system: SW-620 colon
# [42] = system: MDA-MB-435
# [43] = system: M14 melanoma
# [44] = system: A549 NSCLC
# [45] = system: T-47D breast
# [46] = system: KM20L2 colon
# [47] = system: SNB-78 CNS
# [48] = system: MCF7 breast
# [49] = system: DLD-1 colon
# [50] = system: HCT-116 colon
# [51] = system: MDA-MB-231 breast
# [52] = system: CCRF-CEM leukemia
# [53] = system: OVCAR-4 ovarian
# [54] = system: HOP-92 NSCLC
# [55] = system: A498 renal
# [56] = system: SK-MEL-2 melanoma
# [57] = system: K-562 leukemia
# [58] = system: PC-3 prostate
# [59] = system: MDA-N
# [60] = system: SF-295 CNS
# [61] = system: DU-145 prostate
# [62] = system: RPMI-8226 leukemia
# [63] = system: LXFL 529 NSCLC
# [64] = system: OVCAR-8 ovarian
# [65] = system: NCI/ADR-RES ovarian
# [66] = system: LOX IMVI melanoma
# [67] = system: UO-31 renal
# [68] = system: HT29 colon
# [69] = system: DMS 273 small cell lung
# [70] = system: P388 leukemia
# [71] = system: SN12K1 renal
# [72] = system: P388/ADR leukemia
compound,measurement,setting,value
CC(=O)N(O)CCCCCNC(=O)CCC(=O)N(O)CCCCCNC(=O)CCC(=O)N(O)CCCCCN,TGI,[1],> 100 µM
same,TGI,[2],> 100 µM
same,TGI,[3],84 µM
same,TGI,[4],> 100 µM
same,TGI,[5],> 100 µM
same,TGI,[6],> 100 µM
same,TGI,[7],> 100 µM
same,TGI,[8],> 100 µM
same,TGI,[9],> 100 µM
same,TGI,[10],> 82.8 µM
same,TGI,[11],> 54.9 µM
same,TGI,[12],> 100 µM
same,TGI,[13],> 100 µM
same,TGI,[14],> 100 µM
same,TGI,[15],> 100 µM
same,TGI,[16],> 100 µM
same,TGI,[17],> 100 µM
same,TGI,[18],83.2 µM
same,TGI,[19],> 100 µM
same,TGI,[20],> 100 µM
same,TGI,[21],> 100 µM
same,TGI,[22],> 77.5 µM
same,TGI,[23],> 100 µM
same,TGI,[24],> 100 µM
same,TGI,[25],> 100 µM
same,TGI,[26],> 100 µM
same,TGI,[27],> 100 µM
same,TGI,[28],> 92.3 µM
same,TGI,[29],> 100 µM
same,TGI,[30],> 100 µM
same,TGI,[31],> 85.5 µM
same,TGI,[32],> 100 µM
same,TGI,[33],> 92.3 µM
same,TGI,[34],> 100 µM
same,TGI,[35],> 76.9 µM
same,TGI,[36],> 100 µM
same,TGI,[37],> 100 µM
same,TGI,[38],> 100 µM
same,TGI,[39],> 100 µM
same,TGI,[40],> 100 µM
same,TGI,[41],> 100 µM
same,TGI,[42],> 100 µM
same,TGI,[43],> 100 µM
same,TGI,[44],> 100 µM
same,TGI,[45],> 100 µM
same,TGI,[46],> 100 µM
same,TGI,[47],> 100 µM
same,TGI,[48],> 100 µM
same,TGI,[49],> 100 µM
same,TGI,[50],> 100 µM
same,TGI,[51],> 100 µM
same,TGI,[52],> 54.4 µM
same,TGI,[53],> 100 µM
same,TGI,[54],> 100 µM
same,TGI,[55],> 100 µM
same,TGI,[56],> 100 µM
same,TGI,[57],> 100 µM
same,TGI,[58],> 100 µM
same,TGI,[59],> 100 µM
same,TGI,[60],> 100 µM
same,TGI,[61],> 60.1 µM
same,TGI,[62],> 100 µM
same,TGI,[63],> 100 µM
same,TGI,[64],> 100 µM
same,TGI,[65],> 100 µM
same,TGI,[66],> 100 µM
same,TGI,[67],> 100 µM
same,TGI,[68],> 100 µM
same,TGI,[69],> 100 µM
COc1cc2c(oc(=O)c3cc(C)cc(OC)c32)c2c(C3OC(C)C(O)C(C)(O)C3O)ccc(O)c12 (stereo unspecified),TGI,[1],1.13 µM
same,TGI,[3],2.89 µM
same,TGI,[4],1.18 µM
same,TGI,[5],1.45 µM
same,TGI,[6],3.65 µM
same,TGI,[7],5.59 µM
same,TGI,[8],2.51 µM
same,TGI,[10],0.875 µM
same,TGI,[11],0.763 µM
same,TGI,[12],2.1 µM
same,TGI,[14],5.41 µM
same,TGI,[15],1.85 µM
same,TGI,[16],1.46 µM
same,TGI,[17],4.63 µM
same,TGI,[18],5.3 µM
same,TGI,[19],2.31 µM
same,TGI,[20],4.45 µM
same,TGI,[21],1.08 µM
same,TGI,[24],2.16 µM
same,TGI,[25],2.42 µM
same,TGI,[26],1.17 µM
same,TGI,[28],1.73 µM
same,TGI,[29],1.41 µM
same,TGI,[30],1.62 µM
same,TGI,[31],1.79 µM
same,TGI,[32],2.39 µM
same,TGI,[33],1.21 µM
same,TGI,[70],2.03 µM
same,TGI,[34],1.15 µM
same,TGI,[35],0.251 µM
same,TGI,[36],1.76 µM
same,TGI,[37],2.06 µM
same,TGI,[38],1.73 µM
same,TGI,[39],1.64 µM
same,TGI,[41],7.74 µM
same,TGI,[44],7.4 µM
same,TGI,[46],5.04 µM
same,TGI,[47],5.32 µM
same,TGI,[48],3.99 µM
same,TGI,[49],4.56 µM
same,TGI,[50],6.12 µM
same,TGI,[71],1.51 µM
same,TGI,[52],2.41 µM
same,TGI,[53],2.14 µM
same,TGI,[54],4.32 µM
same,TGI,[55],1.29 µM
same,TGI,[56],1.56 µM
same,TGI,[57],3.73 µM
same,TGI,[60],1.29 µM
same,TGI,[62],1.92 µM
same,TGI,[64],1.99 µM
same,TGI,[65],2.51 µM
same,TGI,[66],1.71 µM
same,TGI,[72],3.41 µM
same,TGI,[67],3.19 µM
same,TGI,[68],4.81 µM
same,TGI,[69],1.27 µM
